Measured values from patent publication US9458154B2, “Kinase inhibitors” (Chiesi Farmaceutici S.p.A., priority 2011, dated 2016).
Counter-ions that a name gives are not always drawn.

Target: T1, p38alpha (Homo sapiens, UniProt Q16539)
T1 construct: purchased Invitrogen PV3304
Experiment: P38alpha Enzyme Inhibition Assay (Alphascreen kinase activity assay)
Format: biochemical
Conditions: 100 pM p38alpha, ATF-2 fusion protein substrate, 250 μM ATP, 2 hours preincubation at 25° C.; read-out: p38α inhibition
Method: P38alpha Enzyme Inhibition Assay
The inhibitory activity of compounds was determined using an Alphascreen® (Perkin Elmer) based kinase activity assay. Kinase reactions consisted of 25 mM HEPES pH 7.5, 10 mM MgCl2, 100 μM Na3VO4, 2 mM DTT, 0.05 mg/ml Tween 20, 100 pM p38alpha (Invitrogen, PV3304), 1% DMSO and 0.3 μg/ml ATF-2 fusion protein (New England Biolabs, 9224). Compounds were incubated under these conditions for 2 hours, at 25° C., prior to the initiation of the kinase activity by the addition of the 250 μM ATP. Reaction volumes were 20 uL. After 1 hr at 25° C. reactions were stopped by the adding 10 uL of 25 mM HEPES pH 7.5 containing 62.5 mM EDTA, 0.05% Triton X-100, 10% BSA and 0.83 ng/uL anti-phospho-ATF2 antibody (Abcam, ab28812). Detection was performed by measuring luminescence following the addition of Alphascreen Donor beads (Perkin Elmer 6765300) and Protein A Alphascreen Acceptor beads (Perkin Elmer 6760137), both at a final concentration of 20 ug/ml. IC50 values were determined from concentration-response curves.

T1 sequence (Q16539 whole entry): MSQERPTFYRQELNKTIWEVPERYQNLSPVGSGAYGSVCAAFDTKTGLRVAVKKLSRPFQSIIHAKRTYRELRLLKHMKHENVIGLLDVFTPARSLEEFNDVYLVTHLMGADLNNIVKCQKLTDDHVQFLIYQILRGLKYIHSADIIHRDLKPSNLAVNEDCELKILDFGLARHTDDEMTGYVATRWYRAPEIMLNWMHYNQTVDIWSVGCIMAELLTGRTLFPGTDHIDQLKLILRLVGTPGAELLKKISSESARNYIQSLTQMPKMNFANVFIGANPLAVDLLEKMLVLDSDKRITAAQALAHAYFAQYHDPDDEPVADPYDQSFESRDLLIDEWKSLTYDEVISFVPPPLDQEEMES

IC50, < 10 nM:
CC(C)c1nnc2ccc(O[C@@H]3CC[C@H](NC(=O)Nc4cc(C(C)(C)C)nn4-c4cccc(CN5CCOCC5)c4)c4ccccc43)cn12 [Example 19, 1-[5-tert-Butyl-2-(3-morpholin-4-ylmethyl-phenyl)-2H-pyrazol-3-yl]-3-[(1S,4R)-4-(3-isopropyl-[1,2,4]triazolo[4,3-a]pyridin-6-yloxy)-1,2,3,4-tetrahydro-naphthalen-1-yl]-urea, formic acid salt]
CC(C)c1nnc2ccc(O[C@@H]3CC[C@H](NC(=O)Nc4cc(C(C)(C)C)nn4-c4cccc(OCCN(C)C)c4)c4ccccc43)cn12 [Example 11, 1-{5-tert-Butyl-2-[3-(2-dimethylamino-ethoxy)-phenyl]-2H-pyrazol-3-yl}-3-[(1S,4R)-4-(3-isopropyl-[1,2,4]triazolo[4,3-a]pyridin-6-yloxy)-1,2,3,4-tetrahydro-naphthalen-1-yl]-urea]
COCC(=O)Nc1cc(CO[C@@H]2CC[C@H](NC(=O)Nc3cc(C(C)(C)C)nn3-c3ccc(C)cc3)c3ccccc32)ccn1 [Example 9, N-(4-{(1R,4S)-4-[3-(5-tert-Butyl-2-p-tolyl-2H-pyrazol-3-yl)-ureido]-1,2,3,4-tetrahydro-naphthalen-1-yloxymethyl}-pyridin-2-yl)-2-methoxy-acetamide]
Cc1ccc(-n2nc(C(C)(C)C)cc2NC(=O)N[C@H]2CC[C@@H](Oc3ccn4c(C(C)C)nnc4c3)c3ccccc32)cc1 [Example 5, 1-(5-tert-Butyl-2-p-tolyl-2H-pyrazol-3-yl)-3-[(1S,4R)-4-(3-isopropyl-[1,2,4]triazolo[4,3-a]pyridin-7-yloxy)-1,2,3,4-tetrahydro-naphthalen-1-yl]-urea]
CC(C)c1nnc2ccc(O[C@@H]3CC[C@H](NC(=O)Nc4cc(F)cc(N5CCOCC5)c4)c4ccccc43)cn12 [Example 29, 1-(3-Fluoro-5-morpholin-4-yl-phenyl)-3-[(1S,4R)-4-(3-isopropyl-[1,2,4]triazolo[4,3-a]pyridin-6-yloxy)-1,2,3,4-tetrahydro-naphthalen-1-yl]-urea]
CC(C)c1nnc2ccc(O[C@H]3CC[C@H](NC(=O)NC4CC4)c4ccccc43)cn12 [Example 2, 1-Cyclopropyl-3-[(1S,4S)-4-(3-isopropyl-[1,2,4]triazolo[4,3-a]pyridin-6-yloxy)-1,2,3,4-tetrahydro-naphthalen-1-yl]-urea]
CC(C)c1nnc2ccc(O[C@@H]3CC[C@H](NC(=O)Nc4cc(C(C)(C)C)nn4-c4ccccc4)c4ccccc43)cn12 [Example 1, 1-(5-tert-Butyl-2-phenyl-2H-pyrazol-3-yl)-3-[(1S,4R)-4-(3-isopropyl-[1,2,4]triazolo[4,3-a]pyridin-6-yloxy)-1,2,3,4-tetrahydro-naphthalen-1-yl]-urea]
